Experimental data taken from patent US20230270855A1, “Genetically Modified T-Cells and PI3K/AKT Inhibitors For Cancer Treatment” (The Research Foundation for The State of University New York, priority 2018, published 2023).

How the values were obtained:
WT KPC pancreatic tumors = test: Adoptive transfer of PI3K mutant-expressing T-cells plus BYL719 in tumor-bearing mice; type: in vivo; conditions: WT mice implanted with WT KPC cells
Description: To test the anti-tumor efficacy of CTLKPC clones that express one or more PI3K p110α mutants, one or more PI3K p110δ mutants or combinations of PI3K p110α and p110δ mutants, respectively, in vivo, WT mice are implanted with 0.5 million WT KPC cells in the pancreas. After 2 weeks, the pancreatic tumors are well established and are quantified by IVIS imaging. […] Changes in tumor size are monitored by IVIS imaging and survival curves are constructed. Post-mortem examination is performed as described above for analyzing the pancreas. Tumor regression is observed only in the groups that receive adoptive transfer of PI3K mutant-expressing T-cells, plus concurrent treatment with the appropriate PI3K inhibitor.

Akt1W80A = Akt1W80A (Homo sapiens, UniProt P31749, W80A); conditions: previous studies; cited from earlier work
Sequence of Akt1W80A (P31749 whole entry W80A): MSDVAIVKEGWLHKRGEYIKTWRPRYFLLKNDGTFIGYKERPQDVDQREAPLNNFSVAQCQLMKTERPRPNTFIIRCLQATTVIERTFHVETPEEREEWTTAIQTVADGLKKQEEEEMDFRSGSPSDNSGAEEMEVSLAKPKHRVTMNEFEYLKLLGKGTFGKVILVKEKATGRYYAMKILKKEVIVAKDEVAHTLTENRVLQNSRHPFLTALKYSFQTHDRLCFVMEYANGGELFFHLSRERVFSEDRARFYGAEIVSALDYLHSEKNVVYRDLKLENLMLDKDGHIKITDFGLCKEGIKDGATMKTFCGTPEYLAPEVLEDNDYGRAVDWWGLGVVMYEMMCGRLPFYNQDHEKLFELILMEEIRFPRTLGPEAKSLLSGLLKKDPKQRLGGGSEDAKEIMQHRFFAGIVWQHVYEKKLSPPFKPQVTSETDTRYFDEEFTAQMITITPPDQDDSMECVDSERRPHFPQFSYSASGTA

Akt2W80A = Akt2W80A (Homo sapiens, UniProt P31751, W80A); conditions: previous studies; cited from earlier work
Sequence of Akt2W80A (P31751 whole entry W80A): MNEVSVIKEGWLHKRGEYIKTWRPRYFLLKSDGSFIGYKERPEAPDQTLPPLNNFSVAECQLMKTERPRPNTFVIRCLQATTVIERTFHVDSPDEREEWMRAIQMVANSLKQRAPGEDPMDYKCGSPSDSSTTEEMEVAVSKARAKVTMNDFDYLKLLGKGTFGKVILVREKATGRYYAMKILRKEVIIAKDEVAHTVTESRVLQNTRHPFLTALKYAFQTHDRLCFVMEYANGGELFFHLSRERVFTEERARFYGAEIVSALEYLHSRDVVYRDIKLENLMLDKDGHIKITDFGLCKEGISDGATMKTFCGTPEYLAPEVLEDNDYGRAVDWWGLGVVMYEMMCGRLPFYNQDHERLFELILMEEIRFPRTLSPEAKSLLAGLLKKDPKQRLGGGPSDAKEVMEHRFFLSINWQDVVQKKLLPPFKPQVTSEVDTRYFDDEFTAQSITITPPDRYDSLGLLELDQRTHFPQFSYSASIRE

Compound | survival (WT KPC pancreatic tumors) | inhibition of Akt1W80A mutant (Akt1W80A) | inhibition of Akt2W80A mutant (Akt2W80A)
Cc1nc(NC(=O)N2CCC[C@H]2C(N)=O)sc1-c1ccnc(C(C)(C)C(F)(F)F)c1 [BYL719] | all die from pancreatic tumor progression |  | 
NC1(c2ccc(-c3nc4ccn5c(=O)[nH]nc5c4cc3-c3ccccc3)cc2)CCC1 [MK2206] |  | completely resistant | completely resistant
